Tests used:
[1] = system: P. aeruginosa (PA); test: MIC by microdilution, 36 clinical and laboratory strains with known efflux phenotype; assay type: cell-based
Description: MICs of 36 clinical and laboratory strains of PA with known efflux phenotype are measured by microdilution in cation-adjusted Muller-Hinton broth (CA-MHB) or in RPMI medium (commonly used in eukaryotic cell culture). Phe-Arg-β-naphthylamide (PaβN, 50 mg/L) and EGTA 5 mM are used to inhibit efflux pumps and alter OM integrity, respectively. P. aeruginosa strain ATCC PAO1 is used as reference. PA12 is a clinical strain overexpressing the 4 main efflux systems (MexAB, MexCD, MexEF, MexXY), PA403 is a laboratory strain deleted in the genes coding for the 4 efflux systems. A series of reference strains or of clinical isolates for which the expression of genes coding for efflux pumps is known is also used for MICs determinations. MICs are measured by microdilution in MH broth or in RPMI medium (used for eukaryotic cells culture) supplemented with 10% of fetal calf serum, or in MH broth supplemented by increasing amounts of serum. EGTA (5 mM) was used as a chelating agent (disrupting outer membrane integrity) and PaβN (50 mg/L) as an unspecific efflux inhibitor.

[2] = system: TNFα release; test: LPS-induced TNFα release in PMA-differentiated U937 cells (ELISA); assay type: cell-based, human; conditions: at 100 μM
Description: Effects of macrolides on lipopolysaccharide (LPS)-induced TNFα release in PMA-differentiated U937 cells. […] LPS-induced TNFα release was evaluated by ELISA. Values represent means of three experiments±SEM. ^##p<0.01 (vs. non-treatment control), *p<0.05, **p<0.01 (vs. treatment with LPS only).
The human monocytic cell line U937 was obtained from the American Type Culture Collection (ATCC, Rockville, Md.). PBMCs from COPD patients were obtained from Brompton hospital and separated by AccuSPIN (Sigma-Aldrich). Cells were cultured in complete growth medium (RPMI 1640) (Sigma-Aldrich) supplemented with 10% fetal bovine serum (FBS) and 1% L-glutamine at 37° C. in a humidified atmosphere with 5% CO2. U937 cells were differentiated into adherent macrophage-like morphology by exposure to PMA (50 ng/mL) for 48 hrs in complete growth medium. Cell viability was assessed microscopically by trypan blue staining. Cell toxicity was determined by MTT assay as needed. This study was approved by the ethics committee of the Royal Brompton Hospitals, and all subjects gave written informed consent.
TNFα and IL-8 concentrations in the supernatant of cell cultures were determined by sandwich ELISA according to the manufacturer's instructions (R&D Systems Europe, Abingdon, UK).
The results were expressed as the mean±SEM. Comparisons of data in two groups were performed using the Student's t test or the Wilcoxon signed rank test. Multiple comparisons were made by one-way ANOVA with post hoc test (Dunnett's) as appropriate. The difference was considered significant at p<0.05. IC50 values (50% inhibitory concentration) for macrolides for production of cytokines or MMP9 were calculated using Prism 4.0 (GraphPad Software Inc., San Diego, Calif.).

CC[C@H]1OC(=O)[C@H](C)C(=O)[C@H](C)[C@@H](O[C@@H]2O[C@H](C)C[C@H](N(C)C)[C@H]2O)[C@](C)(OC)C[C@@H](C)C(=O)[C@H](C)[C@H]2N(CCCCn3cnc(-c4cccnc4)c3)C(=O)O[C@]12C [TEL, telithromycin]
0.25 µg/mL: MIC ([1]; strain 3, efflux EF+, RPMI) | MIC ([1]; strain 396, ompH−, RPMI) | MIC ([1]; strain 398, efflux CD−, RPMI) | MIC ([1]; strain 399, efflux AB − EF−, RPMI) | MIC ([1]; strain 400, efflux XY−, RPMI) | MIC ([1]; strain 405, efflux AB − CD − EF − XY−, RPMI)
8 µg/mL: MIC ([1]; strain 48, efflux CD + EF + XY+, RPMI) | MIC ([1]; strain 397, efflux AB−, MHB) | MIC ([1]; strain 398, efflux CD−, MHB) | MIC ([1]; strain 400, efflux XY−, MHB) | MIC ([1]; strain 405, efflux AB − CD − EF − XY−, MHB)
64 µg/mL: MIC ([1]; strain 3, efflux EF+, MHB) | MIC ([1]; strain 11, efflux AB + CD+, MHB) | MIC ([1]; strain 21, efflux AB+, MHB) | MIC ([1]; strain 40, efflux EF+, MHB) | MIC ([1]; strain 333A, efflux AB + EF+, MHB) | MIC ([1]; strain 391, efflux EF−, MHB) | MIC ([1]; strain 394, efflux XY−, MHB)
16 µg/mL: MIC ([1]; strain 2, efflux CD+, RPMI) | MIC ([1]; strain 396, ompH−, MHB)
256 µg/mL: MIC ([1]; strain 2, efflux CD+, MHB) | MIC ([1]; strain 41, efflux CD+, MHB) | MIC ([1]; strain 168B, efflux CD + XY+, MHB) | MIC ([1]; strain 266B, efflux AB + CD+, MHB) | MIC ([1]; strain PAO1, REFERENCE, MHB)
2 µg/mL: MIC ([1]; strain 21, efflux AB+, RPMI) | MIC ([1]; strain 22, efflux XY+, RPMI) | MIC ([1]; strain 40, efflux EF+, RPMI) | MIC ([1]; strain 156, efflux EF + XY+, RPMI) | MIC ([1]; strain 333A, efflux AB + EF+, RPMI) | MIC ([1]; strain 391, efflux EF−, RPMI) | MIC ([1]; strain 395, efflux HI−, RPMI) | MIC ([1]; strain PAO1, REFERENCE, RPMI)
32 µg/mL: MIC ([1]; strain 392, efflux CD−, MHB) | MIC ([1]; strain 395, efflux HI−, MHB)
> 100 µM: IC50 ([2]; Homo sapiens, U-937, read-out: IC50, LPS-induced TNFα release: NE at 100 μM, U937 cells)
128 µg/mL: MIC ([1]; strain 1, efflux AB+, MHB) | MIC ([1]; strain 4, efflux XY+, MHB) | MIC ([1]; strain 12, efflux AB + CD + EF + XY+, MHB) | MIC ([1]; strain 16, efflux AB + XY+, MHB) | MIC ([1]; strain 22, efflux XY+, MHB) | MIC ([1]; strain 48, efflux CD + EF + XY+, MHB) | MIC ([1]; strain 49, efflux CD + EF + XY+, MHB) | MIC ([1]; strain 63, efflux AB + EF + XY+, MHB) | MIC ([1]; strain 68, efflux AB + XY+, MHB) | MIC ([1]; strain 133, efflux EF + XY+, MHB) | MIC ([1]; strain 156, efflux EF + XY+, MHB) | MIC ([1]; strain 207, efflux AB + EF + XY+, MHB) | MIC ([1]; strain 335, efflux AB + EF+, MHB) | MIC ([1]; strain 434, efflux AB + CD + XY+, MHB)
1 µg/mL: MIC ([1]; strain 11, efflux AB + CD+, RPMI) | MIC ([1]; strain 394, efflux XY−, RPMI) | MIC ([1]; strain 401, ompH−, RPMI)
0.03 µg/mL: MIC ([1]; strain 397, efflux AB−, RPMI)
0.5 µg/mL: MIC ([1]; strain 392, efflux CD−, RPMI) | MIC ([1]; strain 403, efflux AB − CD − EF − XY−, RPMI)
did not inhibit: effect on TNFα production [2]
4 µg/mL: MIC ([1]; strain 1, efflux AB+, RPMI) | MIC ([1]; strain 4, efflux XY+, RPMI) | MIC ([1]; strain 12, efflux AB + CD + EF + XY+, RPMI) | MIC ([1]; strain 16, efflux AB + XY+, RPMI) | MIC ([1]; strain 41, efflux CD+, RPMI) | MIC ([1]; strain 49, efflux CD + EF + XY+, RPMI) | MIC ([1]; strain 63, efflux AB + EF + XY+, RPMI) | MIC ([1]; strain 68, efflux AB + XY+, RPMI) | MIC ([1]; strain 133, efflux EF + XY+, RPMI) | MIC ([1]; strain 168B, efflux CD + XY+, RPMI) | MIC ([1]; strain 207, efflux AB + EF + XY+, RPMI) | MIC ([1]; strain 266B, efflux AB + CD+, RPMI) | MIC ([1]; strain 335, efflux AB + EF+, RPMI) | MIC ([1]; strain 399, efflux AB − EF−, MHB) | MIC ([1]; strain 401, ompH−, MHB) | MIC ([1]; strain 403, efflux AB − CD − EF − XY−, MHB) | MIC ([1]; strain 434, efflux AB + CD + XY+, RPMI)

From patent US9861616B2, “Methods for treating respiratory diseases and formulations therefor” (priority 2013, dated 2018)
